Values quoted from earlier work, collected in patent publication US8362077B2, “Chemical compositions for skin care emulsions and heavy duty hand cleansers” (Pibed Limited, priority 2008, dated 2013).
Where two headings read alike, the source gives them in different places.

Columns and labels:
Lactobacillus fermentum = details: flow cytometry
Staphylococcus aureus = details: low concentrations (0.5 to 2 mM)
Microsporum gypseum [1] = details: M. gypseum
Microsporum gypseum [2] = details: 10% in Vaseline petroleum jelly, topical, daily for 3 weeks

Row | Compound | MIC (Microsporum gypseum [1]; positive control) | MIC (Microsporum gypseum [1]) | Intracellular accumulation of ethidium bromide by live cells (Lactobacillus fermentum) | Susceptibility to ciprofloxacin, clindamycin, erythromycin, gentamicin, tetracycline and vancomycin (Staphylococcus aureus) | Histopathologic examination of skin tissues (Microsporum gypseum [2]) | Skin lesion scoring (Microsporum gypseum [2]) | Sensitization to polymyxin B (Escherichia coli) | Hair culture test (Microsporum gypseum [2])
1 | CC(C)=CCC/C(C)=C/CC1CCCC1=O (centres unmarked) [apritone] | – | – | promoted the intracellular accumulation | enhanced the susceptibility | – | – | – | –
2 | CC(C)=CCC[C@](C)(O)C1CC=C(C)CC1 (some centres unmarked) [bisabolol] | – | – | promoted the intracellular accumulation | enhanced the susceptibility | – | – | – | –
3 | Clc1ccc(COC(Cn2ccnc2)c2ccc(Cl)cc2Cl)cc1 (centres unmarked) [econazole] | 4 to 16 µg/mL | – | – | – | – | – | – | –
4 | CC(C)=CCCC(C)=CCCC(C)=CCO [farnesol] | – | – | promoted the intracellular accumulation | – | – | – | sensitized Escherichia coli to polymyxin B | –

Continued, in another order:

Row | MIC (Microsporum gypseum [1]; positive control) | MIC (Microsporum gypseum [1]) | Compound | Intracellular accumulation of ethidium bromide by live cells (Lactobacillus fermentum) | Susceptibility to ciprofloxacin, clindamycin, erythromycin, gentamicin, tetracycline and vancomycin (Staphylococcus aureus) | Histopathologic examination of skin tissues (Microsporum gypseum [2]) | Skin lesion scoring (Microsporum gypseum [2]) | Sensitization to polymyxin B (Escherichia coli) | Hair culture test (Microsporum gypseum [2])
5 | – | 0.01-0.03% | C=CCc1ccc(O)c(OC)c1 [eugenol] | – | – | lower degree of hyperkeratosis and inflammatory cell infiltration than the positive control | clinically effective at improving the lesion during the first week of application | – | –
6 | – | 0.5-2% | C=CC(C)(O)CCC=C(C)CCC=C(C)C (centres unmarked) [nerolidol, 3,7,11-trimethyl-1,6,10-dodecatrien-3-ol] | promoted the intracellular accumulation | enhanced the susceptibility | lower degree of hyperkeratosis and inflammatory cell infiltration than the positive control | clinically effective at improving the lesion during the first week of application | sensitized Escherichia coli to polymyxin B | improved the skin lesions
